Measured values reported in patent US20090062369A1, “USE OF SECRETORY PHOSPHOLIPASE A2 (SPLA2) INHIBITORS TO DECREASE SPLA2 LEVELS” (priority 2007, published 2009).

System: serum sPLA2
Assay: Effect of twice-a-day oral A-002 on serum sPLA2 levels in subjects with stable coronary artery disease (Example 6)
Assay type: in vivo, human
Description: The protocol for preparing standard curve, test, and quality control samples for use in the assay disclosed herein is set forth in Example 5. Samples are prepared according to this protocol, then loaded in duplicate onto a plate (Cayman catalog no. 485002 or equivalent) that has been pre-coated with a monoclonal sPLA2 antibody (“capture antibody”) that specifically binds sPLA2. In certain embodiments, the capture antibody may interact with a specific form of sPLA2, such as for example sPLA2 type IIA.
sPLA2 acetylcholinesterase:Fab′ conjugate (AChE:Fab′) (“conjugate”) (Cayman catalog no. 485000 or equivalent) is reconstituted in EIA buffer (Cayman catalog no. 400060 or equivalent). Cayman EIA buffer is 1M phosphate, pH 7.0, 1% BSA, 4M NaCl, 10 mM EDTA, and 0.1% sodium azide. Reconstituted conjugate is added to each well of the plate. The conjugate binds a different sPLA2 epitope than the capture antibody, allowing the capture antibody and the conjugate to form a “sandwich” that is immobilized on the plate. Excess reagents are washed away, and the plate is covered and incubated overnight at 2-8° C.
Prior to development, the wells are washed five to six times with wash buffer (Cayman catalog no. 400062 or equivalent). To develop the plate, Ellman's Reagent (Cayman catalog no. 400050 or equivalent) is reconstituted in water and added to each well according to manufacturer instructions. The reconstituted Ellman's Reagent must be used the same day it is prepared because it is unstable. Ellman's Reagent contains an AChE substrate. Specifically, Ellman's Reagent contains acetylthiocholine and 5,5′-dithio-bis-(2-nitrobenzoic acid). Hydrolysis of acetylthiocholine by acetylcholinesterase produces thiocholine, which reacts with 5,5′-dithio-bis-(2-nitrobenzoic acid) to produce 5-thio-2-nitrobenzoic acid. 5-thio-2-nitrobenzoic acid has a strong absorbance at 412 nm. The intensity of absorbance at this wavelength is directly proportional to the concentration of bound conjugate, which is in turn is directly proportional to the concentration of sPLA2 present (Absorbance a [AChE:Fab′ conjugate] α [sPLA2]). During the development step, the plate is shaken, preferably in the dark. In certain embodiments the development time for the assay is 0.5 to 3 hours, preferably 1 to 1.5 hours. At the end of the development period, the high sPLA2 standards should have greater yellow color development than the zero standards. Absorbance of each well is measured at 400-420 nm using a micro-well plate reader. In certain embodiments, absorbance is measured at about 405 nm.
Absorbance readings for duplicate wells are averaged, and the relative standard deviation and % CV are calculated. Standard curve data are used to generate a four parameter curve, and quality control and test samples are measured against the appropriate standard curve (i.e., the standard curve with the same serum content). In order for a test to be considered valid, variation between duplicate wells should be no more than about 25%, and negative controls (blanks) for each standard curve should have a mean absorbance of less than about 0.3.
The method disclosed herein for measuring sPLA2 levels in serum was utilized to determine the effect of administering certain sPLA2 inhibitors on sPLA2 levels in 84 human subjects. The subjects included 24 subjects with diabetes, 32 subjects with metabolic syndrome, and 75 subjects receiving statin treatment. Subjects were administered the sPLA2 inhibitor A-002, a prodrug form of A-001, twice a day at varying dosages from 50 to 500 mg. The structures of A-002and A-001 are set forth below. At two weeks and four weeks after the first administration, sPLA2 levels were measured and compared to pre-administration baseline levels.
84 subjects with stable coronary artery disease were randomized to receive placebo or A-002 via oral administration twice a day over a four week administration period. […]

[1] = 500 mg, non-diabetes subgroup of ITT population
[2] = 500 mg, statin subgroup of ITT population
[3] = A-002 (50 mg), ITT subjects exhibiting at least 3 out of 5 metabolic syndrome criteria
[4] = A-002 (50 mg), non-statin subgroup of ITT population
[5] = A-002 (100 mg), ITT subjects exhibiting at least 3 out of 5 metabolic syndrome criteria
[6] = A-002 (100 mg), non-statin subgroup of ITT population
[7] = A-002 (250 mg), ITT subjects exhibiting at least 3 out of 5 metabolic syndrome criteria
[8] = A-002 (250 mg), non-statin subgroup of ITT population
[9] = A-002 (500 mg), ITT subjects exhibiting at least 3 out of 5 metabolic syndrome criteria

CCc1c(C(=O)C(N)=O)c2c(OCC(=O)OC)cccc2n1Cc1ccccc1 [A-002, [[3-(2-Amino-1,2-dioxoethyl)-2-ethyl-1-(phenylmethyl)-1H-indol-4-yl]oxy]acetic acid methyl ester]
sPLA2 level, Week 2, Range [1]: 0.05 to 0.50 ng/mL
sPLA2 level, Week 4, Mean [1]: 0.13 ng/mL
sPLA2 level, Week 4, Median [1]: 0.05 ng/mL
sPLA2 level, Week 4, Range [1]: 0.05 to 0.40 ng/mL
sPLA2 Change from baseline at week 2, Mean [2]: -2.93 ng/mL
sPLA2 Change from baseline at week 2, Median [2]: -3.30 ng/mL
sPLA2 Change from baseline at week 2, Range [2]: -4.80 to -0.55 ng/mL
sPLA2 Change from baseline at week 4, Mean [2]: -2.99 ng/mL
sPLA2 Change from baseline at week 4, Median [2]: -3.50 ng/mL
sPLA2 Change from baseline at week 4, Range [2]: -4.80 to -0.55 ng/mL
sPLA2 level, Baseline, Mean [2]: 3.05 ng/mL
sPLA2 level, Baseline, Median [2]: 3.00 ng/mL
sPLA2 level, Baseline, Range [2]: 0.60 to 5.40 ng/mL
sPLA2 level, Week 2, Mean [2]: 0.20 ng/mL
sPLA2 level, Week 2, Median [2]: 0.10 ng/mL
sPLA2 level, Week 2, Range [2]: 0.05 to 0.60 ng/mL
sPLA2 level, Week 4, Mean [2]: 0.14 ng/mL
sPLA2 level, Week 4, Median [2]: 0.05 ng/mL
sPLA2 level, Week 4, Range [2]: 0.05 to 0.60 ng/mL
sPLA2 level, Baseline, Mean [3]: 3.47 ng/mL
sPLA2 level, Baseline, Median [3]: 2.70 ng/mL
sPLA2 level, Baseline, Range [3]: 0.80 to 8.80 ng/mL
sPLA2 level, Change from baseline at week 2, Mean [3]: -2.89 ng/mL
sPLA2 level, Change from baseline at week 2, Median [3]: -2.50 ng/mL
sPLA2 level, Change from baseline at week 2, Range [3]: -5.30 to -0.60 ng/mL
sPLA2 level, Change from baseline at week 4, Mean [3]: -2.76 ng/mL
sPLA2 level, Change from baseline at week 4, Median [3]: -2.15 ng/mL
sPLA2 level, Change from baseline at week 4, Range [3]: -6.40 to -0.60 ng/mL
sPLA2 level, Week 2, Mean [3]: 0.96 ng/mL
sPLA2 level, Week 2, Median [3]: 0.30 ng/mL
sPLA2 level, Week 2, Range [3]: 0.20 to 4.00 ng/mL
sPLA2 level, Week 4, Mean [3]: 0.81 ng/mL
sPLA2 level, Week 4, Median [3]: 0.65 ng/mL
sPLA2 level, Week 4, Range [3]: 0.10 to 2.40 ng/mL
sPLA2 level, Baseline, Mean [4]: 1.80 ng/mL
sPLA2 level, Baseline, Median [4]: 1.80 ng/mL
sPLA2 level, Baseline, Range [4]: 1.80 to 1.80 ng/ml
sPLA2 level, Baseline, Mean [5]: 2.97 ng/mL
sPLA2 level, Baseline, Median [5]: 2.20 ng/mL
sPLA2 level, Baseline, Range [5]: 0.05 to 6.00 ng/mL
sPLA2 level, Change from baseline at week 2, Mean [5]: -1.01 ng/mL
sPLA2 level, Change from baseline at week 2, Median [5]: -1.80 ng/mL
sPLA2 level, Change from baseline at week 2, Range [5]: −3.30 to +2.85 ng/ml
sPLA2 level, Change from baseline at week 4, Mean [5]: -2.78 ng/mL
sPLA2 level, Change from baseline at week 4, Median [5]: -2.70 ng/mL
sPLA2 level, Change from baseline at week 4, Range [5]: -5.70 to 0.00 ng/mL
sPLA2 level, Week 2, Mean [5]: 1.20 ng/mL
sPLA2 level, Week 2, Median [5]: 0.80 ng/mL
sPLA2 level, Week 2, Range [5]: 0.30 to 2.90 ng/mL
sPLA2 level, Week 4, Mean [5]: 0.41 ng/mL
sPLA2 level, Week 4, Median [5]: 0.30 ng/mL
sPLA2 level, Week 4, Range [5]: 0.05 to 1.00 ng/mL
sPLA2 level, Baseline, Mean [6]: 3.85 ng/mL
sPLA2 level, Baseline, Median [6]: 3.85 ng/mL
sPLA2 level, Baseline, Range [6]: 2.80 to 4.90 ng/mL
sPLA2 level, Change from baseline at week 2, Mean [6]: -1.90 ng/mL
sPLA2 level, Change from baseline at week 2, Median [6]: -1.90 ng/mL
sPLA2 level, Change from baseline at week 2, Range [6]: −1.90 to −1.90 ng/ml
sPLA2 level, Change from baseline at week 4, Mean [6]: -3.05 ng/mL
sPLA2 level, Change from baseline at week 4, Median [6]: -3.05 ng/mL
sPLA2 level, Change from baseline at week 4, Range [6]: -4.40 to -1.70 ng/mL
sPLA2 level, Week 2, Mean [6]: 0.90 ng/mL
sPLA2 level, Week 2, Median [6]: 0.90 ng/mL
sPLA2 level, Week 2, Range [6]: 0.90 to 0.90 ng/ml
sPLA2 level, Week 4, Mean [6]: 0.80 ng/mL
sPLA2 level, Week 4, Median [6]: 0.80 ng/mL
sPLA2 level, Week 4, Range [6]: 0.50 to 1.10 ng/mL
sPLA2 level, Baseline, Mean [7]: 2.90 ng/mL
sPLA2 level, Baseline, Median [7]: 2.20 ng/mL
sPLA2 level, Baseline, Range [7]: 1.80 to 4.70 ng/mL
sPLA2 level, Change from baseline at week 2, Mean [7]: -1.65 ng/mL
sPLA2 level, Change from baseline at week 2, Median [7]: -1.65 ng/mL
sPLA2 level, Change from baseline at week 2, Range [7]: -1.90 to -1.40 ng/mL
sPLA2 level, Change from baseline at week 4, Mean [7]: -1.75 ng/mL
sPLA2 level, Change from baseline at week 4, Median [7]: -1.75 ng/mL
sPLA2 level, Change from baseline at week 4, Range [7]: -2.10 to -1.40 ng/mL
sPLA2 level, Week 2, Mean [7]: 0.33 ng/mL
sPLA2 level, Week 2, Median [7]: 0.30 ng/mL
sPLA2 level, Week 2, Range [7]: 0.30 to 0.40 ng/mL
sPLA2 level, Week 4, Mean [7]: 0.27 ng/mL
sPLA2 level, Week 4, Median [7]: 0.30 ng/mL
sPLA2 level, Week 4, Range [7]: 0.10 to 0.40 ng/mL
sPLA2 level, Baseline, Mean [8]: 3.40 ng/mL
sPLA2 level, Baseline, Median [8]: 3.40 ng/mL
sPLA2 level, Baseline, Range [8]: 3.40 to 3.40 ng/ml
sPLA2 level, Change from baseline at week 2, Mean [8]: -2.10 ng/mL
sPLA2 level, Change from baseline at week 2, Median [8]: -2.10 ng/mL
sPLA2 level, Change from baseline at week 2, Range [8]: −2.10 to −2.10 ng/ml
sPLA2 level, Change from baseline at week 4, Mean [8]: -2.20 ng/mL
sPLA2 level, Change from baseline at week 4, Median [8]: -2.20 ng/mL
sPLA2 level, Change from baseline at week 4, Range [8]: −2.20 to −2.20 ng/ml
sPLA2 level, Week 2, Mean [8]: 1.30 ng/mL
sPLA2 level, Week 2, Median [8]: 1.30 ng/mL
sPLA2 level, Week 2, Range [8]: 1.30 to 1.30 ng/ml
sPLA2 level, Week 4, Mean [8]: 1.20 ng/mL
sPLA2 level, Week 4, Median [8]: 1.20 ng/mL
sPLA2 level, Week 4, Range [8]: 1.20 to 1.20 ng/ml
sPLA2 level, Baseline, Mean [9]: 3.05 ng/mL
sPLA2 level, Baseline, Median [9]: 3.40 ng/mL
sPLA2 level, Baseline, Range [9]: 1.20 to 4.40 ng/mL
sPLA2 level, Change from baseline at week 2, Mean [9]: -2.94 ng/mL
sPLA2 level, Change from baseline at week 2, Median [9]: -3.50 ng/mL
sPLA2 level, Change from baseline at week 2, Range [9]: -4.00 to -1.15 ng/mL
sPLA2 level, Change from baseline at week 4, Mean [9]: -3.04 ng/mL
sPLA2 level, Change from baseline at week 4, Median [9]: -3.70 ng/mL
sPLA2 level, Change from baseline at week 4, Range [9]: -4.35 to -1.15 ng/mL
sPLA2 level, Week 2, Mean [9]: 0.16 ng/mL
sPLA2 level, Week 2, Median [9]: 0.05 ng/mL
sPLA2 level, Week 2, Range [9]: 0.05 to 0.40 ng/mL
sPLA2 level, Week 4, Mean [9]: 0.06 ng/mL
sPLA2 level, Week 4, Median [9]: 0.05 ng/mL
